Experiments:
[1] = system: HCT116 cells; test: Mitotic arrest assay on HCT116 cells (phospho-histone H3 Ser10); type: cell-based, human; settings: Homo sapiens, HCT-116, HCT116 cells; lowest active dose; read-out: Mitotic arrest HCT116 LAD (converted)
Procedure, shortened: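 Seeded overnight, then compound-treated 6 h at 37 °C (≤0.1% DMSO); fixed, stained with Alexa Fluor 488 anti-phospho-H3 (Ser10) plus Hoechst 33342, imaged on InCell Analyzer 1000. Blank-subtracted signal divided by SD (sigma), triplicate; value is lowest dose giving sigma >5 (LAD).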

[2] = system: PC3 cells; test: EB1 Comet (microtubule disruption) assay; type: cell-based, human; settings: Homo sapiens, PC-3, 1 h, 1 hour treatment, read-out: EB1 pLAC (converted)
Procedure, shortened: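 PC3 human prostate cancer cells exposed to compound for 1 h at 37 °C (0.6% DMSO final), methanol-fixed, immunostained for Eb1 and imaged at 20×. Value is the lowest active concentration (LAC): the concentration at which Eb1 foci are absent in at least 50% of treated cells.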

Structure (SMILES) | minimal effective concentration [1] [µM] | minimal effective concentration [2] [µM]
CCc1cc2ccc(C(C)(C#N)Cc3cc(N(C)C)nc(C#N)n3)cc2[nH]c1=O (stereo not shown) [Compound 317] | 1 | 1
CCc1cc2ccc(C(C)(C#N)Cc3ccc4c(c3)OC(F)(F)O4)cc2[nH]c1=O (stereo not shown) [Compound 346] | 1 | 
CCc1cc2ccc([C@](C)(C#N)Cc3cccc(/C=C/S(C)(=O)=O)c3)cc2[nH]c1=O (single isomer, unassigned) [Compound 291] | 0.1 | 
Cc1cc2ccc(C(C)(C#N)Cc3cccc(OCC4CCOCC4)c3)cc2[nH]c1=O (stereo not shown) [Compound 261] | 1 | 1.78
Cc1cc2ccc(C(C)(C#N)Cc3cccc(C=Cc4ccccc4)c3)cc2[nH]c1=O (stereo not shown) [Compound 179] | 1 | 1.78
CCc1cc2ccc(C(C)(C#N)Cc3cccc(N4CCC(N(C)C)C4)n3)cc2[nH]c1=O (stereo not shown) [Compound 209] | 1 | 0.316
CCc1cc2ccc(C(C)(C#N)Cc3cc(N(C)C)nc(OC)n3)cc2[nH]c1=O (stereo not shown) [Compound 354] | 1 | 1
CCc1cc2ccc(C(C)(C#N)Cc3nc(N(C)C)cc(N(C)C)n3)cc2[nH]c1=O (stereo not shown) [Compound 205] | 0.3 | 1
CCc1cc2ccc(C(C)(C#N)Cc3cccc(C#Cc4cncn4C)n3)cc2[nH]c1=O (stereo not shown) [Compound 217] | 3 | 1
CCc1cc2ccc(C(C)(C#N)CN3CCC(c4ccccc4)CC3)cc2[nH]c1=O (stereo not shown) [Compound 375] | 0.3 | 0.316
CCc1cc2ccc(C(C)(C#N)Cc3cccc(CCS(C)(=O)=O)c3)cc2[nH]c1=O (stereo not shown) [Compound 178] | 3 | 3.16
Cc1cc2ccc(C(C)(C#N)Cc3cccc(Oc4ccccc4)c3)cc2[nH]c1=O (stereo not shown) [Compound 305] | 0.3 | 3.16
CCc1cc2ccc(C(C)(C#N)Cc3ccc(F)c(F)c3)cc2[nH]c1=O (stereo not shown) [Compound 281] | 1 | 0.316
CCc1cc2ccc(C(C#N)(Cc3ccccc3)c3ccc(C#N)cc3)cc2[nH]c1=O (stereo not shown) [Compound 26] | > 10 | > 10
CCc1cc2ccc(C(C)(C#N)Cc3cc(F)ccc3F)cc2[nH]c1=O (stereo not shown) [Compound 280] | 0.3 | 1
Cc1cc2ccc([C@@](C)(C#N)C3CCc4ccccc43)cc2[nH]c1=O (single isomer, unassigned) [Compound 385] | 10 | 10
CCc1cc2ccc(C(C)(C#N)CN3CCN(c4ccccn4)CC3)cc2[nH]c1=O (stereo not shown) [Compound 233] | 1 | 1
Cc1cc2ccc(C(C)(C#N)Cc3cccc(/C=C/CCO)c3)cc2[nH]c1=O (stereo not shown) [Compound 409] | 0.3 | 
Cc1nc(-c2ccccc2)sc1CC(C)(C#N)c1ccc2cc(C)c(=O)[nH]c2c1 (stereo not shown) [Compound 235] | 0.3 | 
CCc1cc2ccc(C(C#N)(Cc3ccccc3)c3ccccc3)cc2[nH]c1=O (stereo not shown) [Compound 27] | 3.16 | 10
CCc1cc2ccc(C(C)(C#N)Cc3cccc(NC)c3)cc2[nH]c1=O (stereo not shown) [Compound 257] | 0.3 | 0.316

Structure (SMILES) | minimal effective concentration [1] [µM] | minimal effective concentration [2] [µM]
CCCC(C#N)(Cc1ccccc1)c1ccc2cc(CC)c(=O)[nH]c2c1 (stereo not shown) [Compound 31] | 1 | 10
Cc1cc2ccc(C(C)(C#N)Cc3cccc(Oc4ccc(F)cc4)c3)cc2[nH]c1=O (stereo not shown) [Compound 192] | 0.3 | 1
CCc1cc2ccc(C(C)(C#N)Cc3cccc(-c4ccc[nH]4)c3)cc2[nH]c1=O (stereo not shown) [Compound 176] | 1 | 1
CCc1cc2ccc([C@@](C)(C#N)Cc3cccc(C#CCO)c3)cc2[nH]c1=O (single isomer, unassigned) [Compound 295] | 10 | 
CCc1cc2ccc(C(C)(C#N)Cc3cccc4[nH]ccc34)cc2[nH]c1=O (stereo not shown) [Compound 379] | 0.3 | 
CCc1cc2ccc(C(C)(C#N)Cc3cc(C#N)nc(C)n3)cc2[nH]c1=O (stereo not shown) [Compound 319] | 0.3 | 1
CCc1cc2ccc(C(C)(C#N)Cc3cc(Cl)nc(C)n3)cc2[nH]c1=O (stereo not shown) [Compound 365] | 0.3 | 0.316
CCc1cc2ccc(C(C)(C#N)Cc3cc(Cl)nc(N(C)C)c3)cc2[nH]c1=O (stereo not shown) [Compound 323] | 0.3 | 
Cc1cc2ccc(C(C)(C#N)C3CCCc4ccccc43)cc2[nH]c1=O (stereo not shown) [Compound 404] | 1 | 0.562
CCc1cc2c(OC)cc(C(C)(C#N)Cc3nc(OC)cc(OC)n3)cc2[nH]c1=O (stereo not shown) [Compound 229] | 3 | 3.16
CCc1cc2ccc(C(C)(C#N)Cc3cccc(/C=N/O)c3)cc2[nH]c1=O (stereo not shown) [Compound 299] |  | 1
CCc1cc2ccc(C(C)(C#N)Cc3cc(Br)cc4c3OCC4)cc2[nH]c1=O (stereo not shown) [Compound 378] | 0.1 | 0.316
CCc1cc2ccc(C(C)(C#N)CN3CCN(c4ccc(C#N)cn4)CC3)cc2[nH]c1=O (stereo not shown) [Compound 377] | 0.3 | 1
CCc1cc2ccc(C(C)(C#N)Cc3cccc(C(=O)OC(C)C)c3)cc2[nH]c1=O (stereo not shown) [Compound 255] | 0.1 | 
CCc1cc2ccc([C@@](C)(C#N)Cc3cc(OC)nc(C)n3)cc2[nH]c1=O (single isomer, unassigned) [Compound 361] | 10 | 
CCc1cc2ccc(C(C)(C#N)Cc3nc(C#N)cc(OC)n3)cc2[nH]c1=O (stereo not shown) [Compound 313] | 0.3 | 0.0316
CCc1cc2ccc([C@](C)(C#N)Cc3cccc(C#CCO)c3)cc2[nH]c1=O (single isomer, unassigned) [Compound 296] | 0.1 | 
CCc1cc2ccc(C(C)(C#N)Cc3cccc(OC)c3F)cc2[nH]c1=O (stereo not shown) [Compound 286] | 1 | 0.562
CCc1cc2ccc(C(C)(C#N)Cc3cccc(C(=N)NO)c3)cc2[nH]c1=O (stereo not shown) [Compound 186] | 3 | 3.16
CCc1cc2ccc(C(C)(C#N)Cc3cc(C#N)nc(OC)c3)cc2[nH]c1=O (stereo not shown) [Compound 314] |  | 1
CCc1cc2ccc(C(C)(C#N)Cc3cccc(OCCCN4CCNCC4)c3)cc2[nH]c1=O (stereo not shown) [Compound 25] | 1 | > 10

Structure (SMILES) | minimal effective concentration [1] [µM] | minimal effective concentration [2] [µM]
CCc1cc2ccc(C(C)(C#N)Cc3cccc(OCCC#N)c3)cc2[nH]c1=O (stereo not shown) [Compound 195] | 0.1 | 0.0316
CCc1cc2ccc(C(C)(C#N)Cc3cccc(OCCCC#N)c3)cc2[nH]c1=O (stereo not shown) [Compound 194] |  | 1
CCc1cc2ccc(C(C)(C#N)Cc3nc(Cl)cc(OC)n3)cc2[nH]c1=O (stereo not shown) [Compound 202] | 0.1 | 
CCc1cc2ccc(C(C)(C#N)CNCc3ccc(C#N)cc3)cc2[nH]c1=O (stereo not shown) [Compound 302] | 1 | 1
CCc1cc2ccc(C(C)(C#N)Cc3cccc(NC)n3)cc2[nH]c1=O (stereo not shown) [Compound 339] | 1 | 
CCc1cc2ccc(C(C)(C#N)Cc3cc(N(C)C)nc(N(C)C)n3)cc2[nH]c1=O (stereo not shown) [Compound 320] | 0.3 | 0.316
CCc1cc2ccc(C(C)(C#N)Cc3cccc(OCCS(C)(=O)=O)c3)cc2[nH]c1=O (stereo not shown) [Compound 201] |  | 0.562
CCc1cc2ccc(C(C)(C#N)Cc3cccc(/C=N/OC)c3)cc2[nH]c1=O (stereo not shown) [Compound 185] |  | 0.1
CCc1cc2ccc(C(C)(C#N)Cc3cc(Br)cc(N(C)C)c3)cc2[nH]c1=O (stereo not shown) [Compound 260] | 0.1 | 
CCc1cc2ccc(C(C)(C#N)Cc3cc(OC)nc(OC)c3)cc2[nH]c1=O (stereo not shown) [Compound 350] |  | 1
C#CCOc1cccc(CC(C)(C#N)c2ccc3cc(CC)c(=O)[nH]c3c2)c1 (stereo not shown) [Compound 196] | 0.3 | 
CCc1cc2ccc([C@](C)(C#N)CCOc3ccc(C#N)cc3)cc2[nH]c1=O (single isomer, unassigned) [Compound 275] | 10 | 
CCc1cc2ccc(C(C)(C#N)Cc3cccc(C#N)[n+]3[O-])cc2[nH]c1=O (stereo not shown) [Compound 228] |  | 0.562
CCc1cc2ccc(C(C)(C#N)Cc3cc(C#N)nc(N(C)C)c3)cc2[nH]c1=O (stereo not shown) [Compound 325] |  | 3.16
CCc1cc2ccc(C(C)(C#N)Cc3cc(OC)ccc3F)cc2[nH]c1=O (stereo not shown) [Compound 171] |  | 0.1
CCc1cc2ccc(C(C)(C#N)Cc3c4ccccc4nn3C)cc2[nH]c1=O (stereo not shown) [Compound 347] |  | 0.562
CCc1cc2ccc(C(C)(C#N)Cc3cc(C(C)C)ccc3OC)cc2[nH]c1=O (stereo not shown) [Compound 288] | 1 | 
CCc1cc2ccc(C(C)(C#N)Cc3nc(OC)cc(N(C)C)n3)cc2[nH]c1=O (stereo not shown) [Compound 355] | 0.1 | 
CCc1cc2ccc([C@](C)(C#N)Cc3cc(OC)nc(C)n3)cc2[nH]c1=O (single isomer, unassigned) [Compound 362] | 0.3 | 
